Data on one compound can be found in patent US9173397B2, “Formulation component” (Syngenta Limited, priority 2011, dated 2015).

Assay [1] deals with Abutilon theophrasti, Chenopodium album, Digitaria sanguinalis, Setaria viridis. The class given is in vivo. The note with it: conclusion from Table 8. As to the method:
The efficacy of the aromatic esters tri-n-hexyltrimellitate (Morflex®560) and tri-isodecylmellitate (Morflex®530) as adjuvants for nicosulfuron were tested in a glasshouse against four weed species. An agrochemical composition was prepared containing 0.2% v/v of the adjuvant in a track sprayer, and was applied at a volume of 200 liters per hectare. The adjuvant oils were emulsified using a small amount of the surfactant Pluronic® PE 10500, which was present in the composition at a concentration of 0.02% v/v. Nicosulfuron was applied at a rate of either 30 or 60 grams per hectare. The weed species and their growth stage at spraying were Abutilon theophrasti (ABUTH; growth stage 13), Chenopodium album (CHEAL; growth stage 14), Digitaria sanguinalis (DIGSA; growth stage 13), and Setaria viridis (SETVI; growth stage 13).
Each spray test was replicated three times. The efficacy of the herbicide was assessed visually and expressed as a percentage of the leaf area killed. Samples were assessed at time periods of 14 and 21 days following application. […] In this experiment Atplus®411F was added at the higher rate of 0.5% v/v. The other adjuvants were added at 0.2% v/v.

Assay [2] relates to Tetranychus urticae. As to the kind of experiment: Mortality of two spotted spider mite on French bean plants, abamectin with/without Morflex 560. The class given is in vivo, Tetranychus urticae (on Phaseolus vulgaris). The method, then:
The efficacy of tri-n-hexyltrimellitate (Morflex® 560) as an adjuvant in compositions containing abamectin was tested and compared to the efficacy of abamectin compositions which lack this type of adjuvant. The Morflex 560 was present at 0.1% v/v in the abamectin compositions. The surfactants polyoxyethylene sorbitan monooleate and an ethoxylated castor oil were also present in all the abamectin compositions tested. Two week old French bean (Phaseolus vulgaris) plants were infested with a mixed population of two spotted spider mite Tetranychus urticae. One day after infestation the plants were treated with the test compositions, with a track sprayer from the top with a rate of 200 liters per hectare. Plants were incubated in the greenhouse for 10 days and the evaluation was done on mortality against Larva and Adults, just on the lower side (untreated) of the leaves. Each experiment was replicated twice and the results were averaged. The mortality against Larva and Adults was then averaged.

Assay [3] relates to Alopecurus myosuroides, Avena fatua, Lolium perenne, Setaria viridis. Kind of assay: Glasshouse weed kill, pinoxaden with/without adjuvants (Example 8). The class given is in vivo. The conditions noted are these: conclusion from Table 9. The method, then: The efficacy of the aromatic esters tri-n-hexyltrimellitate (Morflex®560) and tri-isodecylmellitate (Morflex®530) as adjuvants for pinoxaden were tested in a glasshouse against four weed species. An agrochemical composition was prepared containing 0.2% v/v of the adjuvant in a track sprayer and was applied at a volume of 200 liters per hectare. Pinoxaden was applied at either 7.5 or 15 grams per hectare on each of the weed species. The weed species and their growth stage at spraying were Alopecurus myosuroides (ALOMY; growth stage 13), Avena fatua (AVEFA; growth stage 12); Lolium perenne (LOLPE; growth stage 13), Setaria viridis (SETVI; growth stage 14).
Each spray test was replicated three times. The efficacy of the herbicide was assessed visually and expressed as a percentage of the leaf area killed. Samples were assessed at time periods of 7 and 14 days following application. The results shown in Table 9 below are mean averages over the two rates of pinoxaden, three replicates, four weed species and the two assessment timings. The results were compared to the efficacy of pinoxaden in the absence of an adjuvant and pinoxaden in the presence of either tri-2-ethylhexyl phosphate (applied at 0.5% v/v) or methyl oleate (applied at 0.2% v/v).

As to `CCCCCCOC(=O)c1ccc(C(=O)OCCCCCC)c(C(=O)OCCCCCC)c1` [Tri-n-hexyltrimellitate, Tri-n-hexyl trimellitate], the “adjuvant efficacy in words (nicosulfuron)” value in assay [1] is “more effective an adjuvant than methyl oleate and as effective an adjuvant as Atplus®411F”. For the same compound, the “mortality of Tetranychus urticae” value in assay [2] (composition without abamectin, 0.1% v/v Morflex 560) is listed as “no mortality was observed”. In assay [2] (conclusion from Table 10), the “adjuvant efficacy in words (abamectin, Tetranychus urticae)” value was “provided effective control of Tetranychus urticae at much lower concentrations of abamectin than are required in the absence of adjuvant”. Moreover, the “adjuvant efficacy in words (pinoxaden)” value in assay [3] is on record as “increases the efficacy of pinoxaden”.
